The term IC50 denotes the midpoint of a concentration-inhibition curve. A lower IC50 goes with inhibition by little substance.

The source of these data is patent US8895547B2, “Substituted phenyl-oxathiazine derivatives, method for producing them, drugs containing said compounds and the use thereof” (Sanofi, priority 2011, dated 2014).

The target of the test is T1, human 11β-HSD1 (Homo sapiens, UniProt P28845).
T1 construct: host or cells: microsome fraction
Description: Enzymatic 11beta-HSD1 test (SPA-based detection). The class given is biochemical. Particulars: human 11β-HSD1 microsome fraction, [1,2-3H]-cortisone, NADPH, 37° C. 1 hour. The method, then:
Enzymatic 11beta-HSD1 test:
To measure the activity of the compounds, an SPA-based detection method (Solly et al. 2005) was employed. First of all, 20 μl of the human 11β-HSD1 microsome fraction (0.2 μg of protein), prepared in 50 mM HEPES, 0.1% BSA (w/v), were applied to a plate with 384 wells. The test compounds (0.09 μl) were applied to the assay plate in 100% DMSO. The reaction was started by addition of 20 μl of [1,2-^3H]-cortisone (0.1 μCi/[…]) in assay buffer comprising 25 mM HEPES, 100 mM KCl, 5 mM NaCl, 2 mM MgCl2 and 0.25 mM NADPH. The plate was agitated at 37° C. for 1 hour. At the same time, a stop solution comprising 20 mg/ml SPA-PVT beads, 1.6 mg/ml monoclonal cortisol antibody and 0.01 mM SSR110887 (inhibitor from the Biovitrium patent) in 50 mM HEPES, 1 M NaCl and 1 M KCl was stirred at room temperature. To stop the reaction, 25 μl of the stop solution were added to each well. The plate was agitated gently at room temperature for 1 further hour and then centrifuged at 500 gav for 1 minute, in order that the SPA beads could settle out. The plate was then read in a Wallac-1450-Microbeta unit with a standard SPA program (counting time 1 min/well). The comparative compound was glycyrrhetinic acid.
Protein and radioactive substrate were dispensed with a Biomek FX unit (Beckman Coulter) for handling liquids. The test compounds were added with a Cybi-Well equipped with a 90 nl pin tool (CyBio).
Lit.: Solly S, Mundt S S, Zokian H J, Juy-Fang Ding G, Hermanowski-Vosatka A, Strulovici B and Zheng W. High-throughput screening of 11β-Hydroxysteroid dehydrogenase type 1 in scintillation proximity format. Assay Drug Dev Technol 2005; 3:377-384.

SMILES strings stand for the structures.

T1 sequence (P28845 whole entry): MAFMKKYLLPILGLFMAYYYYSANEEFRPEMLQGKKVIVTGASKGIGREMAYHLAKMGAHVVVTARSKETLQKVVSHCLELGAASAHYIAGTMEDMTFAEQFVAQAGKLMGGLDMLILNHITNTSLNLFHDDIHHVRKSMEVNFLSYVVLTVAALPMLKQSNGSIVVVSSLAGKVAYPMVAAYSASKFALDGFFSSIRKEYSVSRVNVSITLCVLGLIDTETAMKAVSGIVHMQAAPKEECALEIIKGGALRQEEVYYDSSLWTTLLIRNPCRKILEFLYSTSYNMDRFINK

As to `CC1(C)OC(N[C@@H](CCO)c2ccccc2F)=NS(=O)(=O)[C@H]1c1ccc(-c2cccc(C(N)=O)c2)cc1` [Example 149, 4′-{(S)-2-[(S)-1-(2-fluorophenyl)-3-hydroxy-propylamino]-6,6-dimethyl-4,4-dioxo-5,6-dihydro-4H-4lambda6-[1,4,3]oxathiazin-5-yl}-biphenyl-3-carboxamide], the half-maximal inhibitory concentration (IC50) was determined as 4 nM.
In turn, `CC1(C)OC(N[C@@H](CCO)c2ccccc2F)=NS(=O)(=O)C1c1ccc(-c2ccnc(C#N)c2)cc1` (some centres unmarked) [Example 127] displayed an IC50 of 6 nM.
In the case of `CC1(C)OC(N[C@@H](CCO)c2ccc(Cl)cc2)=NS(=O)(=O)C1c1ccc(-c2ccccc2)cc1` (stereo partly drawn) [Example 88, (S)-3-(5-Biphenyl-4-yl-6,6-dimethyl-4,4-dioxo-5,6-dihydro-4H-4lambda6-[1,4,3]oxathiazin-2-ylamino)-3-(4-chloro-phenyl)-propan-1-ol] it was 198 nM.
The molecule `CN(C)CCCc1ccc(C2C(C)(C)OC(N[C@@H](CCO)c3ccccc3F)=NS2(=O)=O)cc1` (stereo partly drawn) [Example 108, (S)-3-{5-[4-(3-Dimethylamino-propyl)-phenyl]-6,6-dimethyl-4,4-dioxo-5,6-dihydro-4H-4lambda6-[1,4,3]oxathiazin-2-ylamino}-3-(2-fluorophenyl)-propan-1-ol] yielded an IC50 of 42 nM.
In the case of `CC1(C)OC(N[C@@H](CCO)c2cc(Cl)ccc2F)=NS(=O)(=O)C1c1ccc(-c2ccccc2)cc1` (stereo partly drawn) [Example 99, (S)-3-(5-Biphenyl-4-yl-6,6-dimethyl-4,4-dioxo-5,6-dihydro-4H-4lambda6-[1,4,3]oxathiazin-2-ylamino)-3-(5-chloro-2-fluorophenyl)-propan-1-ol] it was 25 nM.
Regarding `CC1(C)OC(N[C@@H](CCO)c2ccccc2F)=NS(=O)(=O)C1c1ccc(-c2cccnc2)cc1` (stereo partly drawn) [Example 113, (S)-3-[6,6-Dimethyl-4,4-dioxo-5-(4-pyridin-3-yl-phenyl)-5,6-dihydro-4H-4lambda6-[1,4,3]oxathiazin-2-ylamino]-3-(2-fluorophenyl)-propan-1-ol], inhibition was half-maximal at 4 nM (IC50).
The value for `CC1(C)OC(N[C@@H](CCO)c2ccccc2F)=NS(=O)(=O)[C@H]1c1ccc(-c2ccc(C(N)=O)cc2)cc1` [Example 146, 4′-{(S)-2-[(S)-1-(2-fluorophenyl)-3-hydroxy-propylamino]-6,6-dimethyl-4,4-dioxo-5,6-dihydro-4H-4lambda6-[1,4,3]oxathiazin-5-yl}-biphenyl-4-carboxamide] was 8 nM; that for `CC1(C)OC(N[C@@H](CCO)c2ccccc2)=NS(=O)(=O)C1c1ccccc1` (single isomer, unassigned) [Example 29] was 23 nM.
The value for `CC(C)(C)c1ccc(C2C(C)(C)OC(N[C@@H](CCO)c3ccccc3)=NS2(=O)=O)cc1` (stereo partly drawn) [Compound 60, (S)-3-[5-(4-tert-Butylphenyl)-6,6-dimethyl-4,4-dioxo-5,6-dihydro-4H-4lambda6-[1,4,3]oxathiazin-2-ylamino]-3-phenylpropan-1-ol] was 43 nM; that for `Cc1ccccc1-c1ccc(C2C(C)(C)OC(N[C@@H](CCO)c3ccccc3F)=NS2(=O)=O)cc1` (stereo partly drawn) [Example 64, (S)-3-[6,6-Dimethyl-5-(2′-methyl-biphenyl-4-yl)-4,4-dioxo-5,6-dihydro-4H-4lambda6-[1,4,3]oxathiazin-2-ylamino]-3-(2-fluorophenyl)-propan-1-ol] was 12 nM; that for `CC1(C)OC(N[C@@H](CCO)c2ccccc2)=NS(=O)(=O)C1c1cccc(Br)c1` (stereo partly drawn) [Example 7, (S)-3-[5-(3-Bromophenyl)-6,6-dimethyl-4,4-dioxo-5,6-dihydro-4H-4lambda6-[1,4,3]oxathiazin-2-ylamino]-3-phenyl-propan-1-ol] was 20 nM.
The value for `CC1(C)OC(N[C@@H](CCO)c2ccccc2F)=NS(=O)(=O)C1c1ccc(N2CCCC2=O)cc1` (stereo partly drawn) [Example 132, 1-(4-{2-[(S)-1-(2-fluorophenyl)-3-hydroxy-propylamino]-6,6-dimethyl-4,4-dioxo-5,6-dihydro-4H-4lambda6-[1,4,3]oxathiazin-5-yl}-phenyl)-pyrrolidin-2-one] was 14 nM.
For `CC1(C)OC(N[C@@H](CCO)c2ccccc2F)=NS(=O)(=O)C1c1ccc(-c2cscn2)cc1` (stereo partly drawn) [Example 101, (S)-3-[6,6-Dimethyl-4,4-dioxo-5-(4-thiazol-4-yl-phenyl)-5,6-dihydro-4H-4lambda6-[1,4,3]oxathiazin-2-ylamino]-3-(2-fluorophenyl)-propan-1-ol], the IC50 came out at 5 nM.
In the case of `Cc1cccc(C2C(C)(C)OC(N[C@@H](CCO)c3ccccc3)=NS2(=O)=O)c1` (stereo partly drawn) [Example 9, (S)-3-(6,6-Dimethyl-4,4-dioxo-5-m-tolyl-5,6-dihydro-4H-4lambda6-[1,4,3]oxathiazin-2-ylamino)-3-phenyl-propan-1-ol] it was 22 nM.
In the case of `CC1(C)OC(N[C@@H](CCO)c2ccccc2F)=NS(=O)(=O)C1c1ccc(N2CCN(C(C)(C)C)CC2)cc1` (stereo partly drawn) [Example 138, (S)-3-{5-[4-(4-tert-Butyl-piperazin-1-yl)-phenyl]-dimethyl-4,4-dioxo-5,6-dihydro-4H-4lambda6-[1,4,3]oxathiazin-2-ylamino}-3-(2-fluorophenyl)-propan-1-ol] it was 61 nM; in that of `COc1cccc(C2C(C)(C)OC(N[C@@H](CCO)c3ccccc3)=NS2(=O)=O)c1` (stereo partly drawn) [Example 37, (S)-3-[5-(3-Methoxy-phenyl)-6,6-dimethyl-4,4-dioxo-5,6-dihydro-4H-4lambda6-[1,4,3]oxathiazin-2-ylamino]-3-phenyl-propan-1-ol], 13 nM.
The molecule `Cc1ccc(C2C(C)(C)OC(N[C@@H](CCO)c3ccccc3)=NS2(=O)=O)cc1` (stereo partly drawn) [Example 11, (S)-3-(6,6-Dimethyl-4,4-dioxo-5-p-tolyl-5,6-dihydro-4H-4lambda6-[1,4,3]oxathiazin-2-ylamino)-3-phenyl-propan-1-ol] had an IC50 of 9 nM.
In the case of `Cn1nccc1-c1ccc(C2C(C)(C)OC(N[C@@H](CCO)c3ccccc3F)=NS2(=O)=O)cc1` (stereo partly drawn) [Example 111, (S)-3-{6,6-Dimethyl-5-[4-(2-methyl-2H-pyrazol-yl)-phenyl]-4,4-dioxo-5,6-dihydro-4H-4lambda6-[1,4,3]oxathiazin-2-ylamino}-3-(2-fluorophenyl)-propan-1-ol] it was 7 nM.
The value for `C[C@H](NC1=NS(=O)(=O)C(c2cccc(-c3ccccc3)c2)C(C)(C)O1)c1ccccc1F` (stereo partly drawn) [Example 68, (5-Biphenyl-3-yl-6,6-dimethyl-4,4-dioxo-5,6-dihydro-4H-4lambda6-[1,4,3]oxathiazin-2-yl)-[(S)-1-(2-fluorophenyl)-ethyl]-amine] was 34 nM; that for `COc1ccc(-c2ccc(C3C(C)(C)OC(N[C@@H](CCO)c4ccccc4F)=NS3(=O)=O)cc2)cc1` (stereo partly drawn) [Example 66, (S)-3-(2-Fluorophenyl)-3-[5-(4′-methoxy-biphenyl-4-yl)-6,6-dimethyl-4,4-dioxo-5,6-dihydro-4H-4lambda6-[1,4,3]oxathiazin-2-ylamino]-propan-1-ol] was 23 nM; that for `C[C@H](NC1=NS(=O)(=O)C(c2cccc(C3CCN(C)CC3)c2)C(C)(C)O1)c1ccccc1F` (stereo partly drawn) [Example 179, {6,6-Dimethyl-5-[3-(1-methyl-piperidin-4-yl)-phenyl]-4,4-dioxo-5,6-dihydro-4H-4lambda6-[1,4,3]oxathiazin-2-yl}-[(S)-1-(2-fluorophenyl)-ethyl]-amine] was 34 nM.
In the case of `C[C@H](NC1=NS(=O)(=O)C(c2cccnc2)C(C)(C)O1)c1ccccc1F` (stereo partly drawn) [Example 168, (6,6-Dimethyl-4,4-dioxo-5-pyridin-3-yl-5,6-dihydro-4H-4lambda6-[1,4,3]oxathiazin-2-yl)-[(S)-1-(2-fluorophenyl)-ethyl]-amine] it was 21 nM; in that of `C[C@H](NC1=NS(=O)(=O)C(c2ccc(C3CCN(CCO)CC3)cc2)C(C)(C)O1)c1ccccc1F` (stereo partly drawn) [Example 160, 2-[4-(4-{2-[(S)-1-(2-fluorophenyl)-ethylamino]-6,6-dimethyl-4,4-dioxo-5,6-dihydro-4H-4lambda6-[1,4,3]oxathiazin-5-yl}-phenyl)-piperidin-1-yl]-ethanol], 64 nM; in that of `CC1(C)OC(N[C@@H](CCO)c2ccccc2)=NS(=O)(=O)C1c1ccccc1` (single isomer, unassigned) [Example 28], 16 nM.
`CC1(C)OC(N[C@@H](CCO)c2ccccc2F)=NS(=O)(=O)C1c1ccc(CCN2CCOCC2)cc1` (some centres unmarked) [Example 140] showed a concentration for half-maximal inhibition (IC50) of 69 nM.
The value for `CC1(C)OC(N[C@@H](CCO)c2ccccc2Cl)=NS(=O)(=O)C1c1ccc(-c2ccccc2)cc1` (stereo partly drawn) [Example 83, (S)-3-(5-Biphenyl-4-yl-6,6-dimethyl-4,4-dioxo-5,6-dihydro-4H-4lambda6-[1,4,3]oxathiazin-2-ylamino)-3-(2-chloro-phenyl)-propan-1-ol] was 17 nM.
